The compounds below were run against T1, flavonoid 7-O-glucuronosyltransferase VpF7GAT (Veronica persica, UniProt C0STS8) (assay: Selectivity of VpF7GAT to glycosyl acceptor substrates (glycosyl donor: UDP-glucuronic acid)). Details: compared to other glycosyl acceptor substrates.
Assay type: biochemical
Protocol: (§1) Standard reaction conditions are as follows. […] The mixture was reacted at 30° C. for 1 minute. The reaction was then terminated by adding 50 μl of CH3CN containing 0.5% TFA. The product was analyzed by reversed phase HPLC (LC-2010 System, Shimadzu Corporation).
(§2) The conditions for HPLC are as follows. Develosil C30-UG-5 column (4.6 mm×150 mm, Nomura Chemical) was used with a column oven at 40° C., and the moving phase A (0.1% TFA/H2O) and the moving phase B (0.1% TFA/90% CH3CN) were used. The conditions for elution include a linear density gradient (B20%→B70%) for 15 minutes, then retention with B70% for further 1 minute and again reverting to B20%, followed by equilibration for 20 minutes. HPLC was performed at the flow of 1 ml/min. Detection was performed at 280 and 360 nm using a SPD-M10A Photodiode Array Detector (Shimadzu Corporation).

T1 sequence (C0STS8 entry or part of it): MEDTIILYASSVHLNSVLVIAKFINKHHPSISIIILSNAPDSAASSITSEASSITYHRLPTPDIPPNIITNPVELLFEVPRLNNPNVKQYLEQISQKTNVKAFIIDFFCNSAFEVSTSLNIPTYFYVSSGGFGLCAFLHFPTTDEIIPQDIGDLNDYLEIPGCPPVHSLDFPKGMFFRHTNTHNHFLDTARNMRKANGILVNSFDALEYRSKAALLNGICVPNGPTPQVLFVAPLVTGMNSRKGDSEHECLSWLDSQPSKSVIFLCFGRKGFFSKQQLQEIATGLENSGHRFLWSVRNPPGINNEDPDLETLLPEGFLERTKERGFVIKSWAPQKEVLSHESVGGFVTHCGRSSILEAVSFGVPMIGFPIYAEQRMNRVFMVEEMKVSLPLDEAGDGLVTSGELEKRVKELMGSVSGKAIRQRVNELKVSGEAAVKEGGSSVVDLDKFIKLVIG

SMILES | activity of VpF7GAT with the glycosyl acceptor substrate (in words, summary in the description)
COc1cc(-c2cc(=O)c3c(O)cc(O)cc3o2)ccc1O [chrysoeriol] | strong
O=c1cc(-c2ccc(O)cc2)oc2cc(O)cc(O)c12 [apigenin] | strong
O=c1cc(-c2ccccc2)oc2cc(O)c(O)c(O)c12 [baicalein] | shows an activity
O=c1c(O)c(-c2ccc(O)c(O)c2)oc2cc(O)cc(O)c12 [quercetin] | shows an activity
O=c1c(O)c(-c2ccc(O)cc2)oc2cc(O)cc(O)c12 [kaempferol] | strong
COc1ccc(-c2cc(=O)c3c(O)cc(O)cc3o2)cc1O [diosmetin] | strong
O=C1C[C@@H](c2ccc(O)cc2)Oc2cc(O)cc(O)c21 [naringenin] | strong

Same assay, conditions: glycosyl donor UDP-glucuronic acid; activity to apigenin made 100%; FIG. 3

SMILES | relative activity of glycosyl acceptor substrate
COc1cc(-c2cc(=O)c3c(O)cc(O)cc3o2)ccc1O [chrysoeriol] | 34.0%
O=c1cc(-c2ccc(O)cc2)oc2cc(O)c(O)c(O)c12 [scutellarein] | 88.3%
O=c1cc(-c2ccc(O)cc2)oc2cc(O)cc(O)c12 [apigenin] | 100%
O=c1cc(-c2ccccc2)oc2cc(O)c(O)c(O)c12 [baicalein] | 13.1%
O=c1c(O)c(-c2ccc(O)c(O)c2)oc2cc(O)cc(O)c12 [quercetin] | 1.0%
O=c1c(O)c(-c2ccc(O)cc2)oc2cc(O)cc(O)c12 [kaempferol] | 13.3%
COc1ccc(-c2cc(=O)c3c(O)cc(O)cc3o2)cc1O [diosmetin] | 12.9%
O=C1C[C@@H](c2ccc(O)cc2)Oc2cc(O)cc(O)c21 [naringenin] | 18.0%

Same assay, conditions: glycosyl donor UDP-glucuronic acid; reaction conditions for this enzyme

glucuronosyltransferase activity (in words) | SMILES
not observed | O=c1cc(-c2ccc(O)cc2)oc2cc(O)c([C@@H]3O[C@H](CO)[C@@H](O)[C@H](O)[C@H]3O)c(O)c12 [isovitexin]
not observed | Oc1cc2c(cc1[C@H]1OC[C@H]3[C@@H]1CO[C@@H]3c1ccc3c(c1)OCO3)OCO2 [sesaminol]
not observed | O=c1c(-c2ccc(O)cc2)coc2cc(O)cc(O)c12 [genistein]

Continued, compound first:

SMILES | glucuronosyltransferase activity (in words)
Oc1ccc(C=Cc2cc(O)cc(O)c2)cc1 [resveratrol] | not observed
O=c1ccc2cc(O)c(O)cc2o1 [esculetin] | not observed
O=c1cc(-c2ccc(O)c(O)c2)oc2c([C@@H]3O[C@H](CO)[C@@H](O)[C@H](O)[C@H]3O)c(O)cc(O)c12 [orientin] | not observed

What follows are compounds tested against T1, flavonoid 7-O-glucuronosyltransferase VpF7GAT (assay: not given). Details: glycosyl acceptor substrate apigenin; activity of UDP-glucuronic acid made 100%.
Protocol: as §1, §2

relative activity of UDP glycosyl donor | SMILES
100% | O=C(O)[C@H]1O[C@H](OP(=O)(O)OP(=O)(O)OC[C@H]2O[C@@H](n3ccc(=O)[nH]c3=O)[C@H](O)[C@@H]2O)[C@H](O)[C@@H](O)[C@@H]1O [UDP-glucuronic acid]

— patent publication US20110219476A1, “GLUCURONYL TRANSFERASE AND POLYNUCLEOTIDE ENCODING THE SAME” (priority 2008, published 2011)
